Values quoted from earlier work, collected in patent US20050287205A1, “Dietary supplement compositions” (priority 2004, published 2005).

How the values were obtained:
[1] = tested on: liver and skeletal muscle glycogen; settings: acetic acid administration to mammals; promotes recovery from fatigue
[2] = with water, ethyl alcohol, and diethyl ether
[3] = tested on: renin; settings: spontaneously hypertensive rats
[4] = tested on: spontaneously hypertensive rats

miscibility [2]: miscible (mixable) in all proportions
Structure (SMILES): CC(=O)O [acetic acid]
glycogen repletion in liver and skeletal muscle [1]: enhances glycogen repletion in liver and skeletal muscle
renin activity [3]: significantly reduces
blood pressure [4]: significantly reduces
